Test results as given in US11072635B2, “Macrocyclic broad spectrum antibiotics” (priority 2015, dated 2021).
In brackets after ≈: the same amount, converted by molar mass.

Experiments:
[1] = system: Methicillin Resistant Staphylococcus aureus strain USA 300, NRS384 (S. aureus); assay: Minimum inhibitory concentration, broth micro-dilution (CLSI); assay type: cell-based; conditions: MRSA / NRS 384 / USA300, MRSA USA 300, NRS384, 35° C., 22 hours, cation adjusted Mueller Hinton Broth with 0.002% Tween-80, read-out: MIC (μg/mL) S. aureus
Procedure: (§1) In vitro antimicrobial activity of each compound was determined by measuring minimal inhibitor concentrations (MICs) using the broth micro-dilution technique as approved by the Clinical and Laboratory Standards Institute (CLSI) (Methods for Dilution Antimicrobial Susceptibility Tests for Bacteria that Grow Aerobically; Approved Standard—Eighth Edition. CLSI document M07-A8. Wayne, Pa.: Clinical and Laboratory Standards; 2009). Antibacterial activity was measure against three strains of bacteria: a Methicillin Resistant Staphylococcus aureus strain USA 300, NRS384 (S. aureus); a strain of Escherichia coli MC4100 harboring the IMP4213 (E. coli IMP), which results in increased outer-membrane permeability (B Martin and Silhavy T. Imp/OstA is required for cell envelope biogenesis in Escherichia coli. (2002) Molecular Microbiology, 45(5), 1289-1302), and Escherichia coli ATCC 25922 (E. coli), a clinically relevant Gram-negative strain. Cells were inoculated onto plates of Trypyticase Soy Agar or Luria Agar respectively and grown at 35° C. for 20 hours. Inocula suspensions were prepared by scraping cells into 1 mL of testing media (cation adjusted Mueller Hinton Broth supplemented with 0.002% v/v Tween-80) and diluting to a final OD600 nm of 0.01.
(§2) Test compounds were prepared in DMSO at a concentration of 10 mg/mL. […] In protocol 2, the compound stocks were diluted into testing media at a concentration of 4 μg/mL and serial 2-fold dilutions were made in the same media, in 96-well U bottom microtiter dishes, for a total of 10 compound concentrations. In protocol 3, compound stocks were diluted into testing media at a concentration of 0.5 μg/mL, with serial 2-fold dilutions conducted as described above. […] Inocula suspensions were added to the 2-fold serial dilutions of test compounds to a final density of OD OD600 nm of 0.0005 and incubated at 35° C. for 22 hours.

[2] = system: Escherichia coli MC4100 harboring the IMP4213 (E. coli IMP); assay: microbe, parasite or virus in culture; assay type: cell-based; conditions: 22 h, read-out: MIC (μg/mL) E. coli IMP
Procedure: as §1, §2

[3] = system: Escherichia coli ATCC 25922 (E. coli); assay: Minimum inhibitory concentration, broth micro-dilution (CLSI); assay type: cell-based; conditions: ATCC25922, E. coli ATCC 25922, 35° C., 22 hours, read-out: MIC (μg/mL) E. coli
Procedure: Cells were inoculated onto plates of Trypyticase Soy Agar or Luria Agar respectively and grown at 35° C. for 20 hours. Inocula suspensions were prepared by scraping cells into 1 mL of testing media (cation adjusted Mueller Hinton Broth supplemented with 0.002% v/v Tween-80) and diluting to a final OD600 nm of 0.01.
as §2

[4] = target: T1, SpsB (Staphylococcus aureus signal peptidase) (Staphylococcus aureus, UniProt P0A070); assay: Whole-cell SpsB biochemical screening assay (kinetic fluorogenic enzyme activity)
T1 construct: a suspension of Staphylococcus aureus cells as a source of SpsB instead of recombinant SpsB protein; endogenous in cells; host or cells: S. aureus, USA300 background, overexpressing SpsB (whole-cell suspension)
Procedure: A kinetic fluorogenic enzyme activity assay was used to assess inhibition of SpsB (Staphylococcus aureus signal peptidase) activity and IC50s were determined. This assay uses a suspension of Staphylococcus aureus cells as a source of SpsB instead of recombinant SpsB protein.
Cell preparation: Luria broth (LB) was inoculated with S. aureus (USA300 background, overexpressing SpsB) and shaken at 37° C. until an OD600 nm of 1.5-2.0 was reached (˜4 hr). The culture was then diluted to an OD600 nm of 1.0 with LB, aliquoted and centrifuged at 10,000×g for 2 mins. The supernatant was removed and the pellet was resuspended in phosphate buffer (1×PBS, 12.5 mg/L MgCl2, 25 mg/L CaCl2, 0.1% Tween-80) to an OD600 nm of 0.5, then centrifuged again at 10,000×g for 2 mins. The supernatant was removed and the pellets were frozen at −20° C.
Test compounds were prepared in DMSO at a concentration of 10 mg/mL. These compound stocks were diluted into DMSO to a concentration of 25 μg/mL and serial 3-fold dilutions were made in DMSO, for a total of 11 compound concentrations. 20 nL of each compound solution was pre-spotted into a white 384-well plate (50 μL/well polypropylene, Nunc) using acoustic fluid transfer (Echo).
Frozen S. aureus pellets were resuspended in assay buffer (1×PBS, 12.5 mg/L MgCl2, 25 mg/L CaCl2, 0.1% Tween-80) to an OD600 nm of 0.05, then mixed 1:1 (v/v) with 20 μM substrate ((Dabcyl)βAla-KPAKAAE(Edans)) in assay buffer, and this solution was added (20 μL/well) to the 384-well plate that had been pre-spotted with compound. Fluorescence intensity was then immediately read kinetically for 30 minutes with 2 minute read intervals to monitor cleavage of the internally quenched peptide substrate (excitation wavelength=340 nm, emission wavelength=490 nm, Molecular Devices Spectramax M5). Reaction rate (slope) was plotted against inhibitor concentration to derive the IC50.

T1 sequence (P0A070 whole entry): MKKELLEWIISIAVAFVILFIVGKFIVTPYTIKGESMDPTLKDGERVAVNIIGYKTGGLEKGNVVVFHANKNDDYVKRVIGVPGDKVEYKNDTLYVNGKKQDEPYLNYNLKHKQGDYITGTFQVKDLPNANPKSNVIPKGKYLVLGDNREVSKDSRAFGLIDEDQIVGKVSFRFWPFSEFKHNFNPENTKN

SMILES	MIC [1]	MIC [2]	MIC [3]	IC50 [4]
CCCCc1ccc(-c2ccc(C(=O)N[C@@H](CCCN)C(=O)N(C)[C@@H]3C(=O)N[C@@H](C)C(=O)N[C@H](c4ncc(C#N)[nH]4)Cc4ccc(OCCN)c(c4)-c4cc3ccc4OCCN)cc2)cc1 [Compound 139]	1 µg/mL (≈ 1.11 µM)	1.5 µg/mL (≈ 1.67 µM)	24 µg/mL (≈ 26.8 µM)	110 nM
CCCCc1ccc(-c2ccc(C(=O)N[C@@H](CCCN)C(=O)N(C)[C@@H]3C(=O)N[C@@H](C)C(=O)N[C@H](c4ncc(C(F)(F)F)[nH]4)Cc4ccc(OCCN)c(c4)-c4cc3ccc4OCCN)cc2)cc1 [Compound 140]	4 µg/mL (≈ 4.25 µM)	1 µg/mL (≈ 1.06 µM)	32 µg/mL (≈ 34 µM)	370 nM
CCCCCCCCCCCCCC(=O)N[C@@H](CCN)C(=O)N(C)[C@@H]1C(=O)N[C@@H](C)C(=O)N[C@H](c2noc(=O)[nH]2)Cc2ccc(OCCN)c(c2)-c2cc1ccc2OCCN [Compound 143]	0.13 µg/mL (≈ 0.153 µM)	0.023 µg/mL (≈ 0.0271 µM)	0.5 µg/mL (≈ 0.588 µM)	1.5 nM
